The text below walks through data of patent publication US20240166641A1, “HETEROCYCLES AND USES THEREOF” (Kumquat Biosciences Inc., priority 2021, published 2024).

For one experiment, the target named is T1, PTPN2 (Homo sapiens, UniProt P17706).
T1 sequence (P17706 1-415): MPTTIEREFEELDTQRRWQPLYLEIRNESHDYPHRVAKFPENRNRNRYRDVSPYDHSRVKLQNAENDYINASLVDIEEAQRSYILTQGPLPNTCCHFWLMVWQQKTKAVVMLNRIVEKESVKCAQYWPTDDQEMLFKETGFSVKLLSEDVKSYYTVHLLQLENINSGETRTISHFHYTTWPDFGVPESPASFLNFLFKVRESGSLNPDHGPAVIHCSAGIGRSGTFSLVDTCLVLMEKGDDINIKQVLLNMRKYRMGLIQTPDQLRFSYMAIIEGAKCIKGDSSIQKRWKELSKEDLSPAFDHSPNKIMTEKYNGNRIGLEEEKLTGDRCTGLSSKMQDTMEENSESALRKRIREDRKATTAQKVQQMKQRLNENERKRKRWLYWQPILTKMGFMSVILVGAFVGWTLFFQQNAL
Nature of the experiment: Phosphatase activity assay (Bio-Biochem-DiFMUP), PTPN2. Conditions: DiFMUP substrate, room temperature. The class given is biochemical. An excerpt: (§1) The selectivity and potency of a small molecule PTPN2 inhibitor as provided herein (e.g., a derivative of Formula I, II, III, IV; or sub-formulae thereof) against one or more protein tyrosine phosphatase (PTP) enzymes, and specifically against PTPN2, can be assessed in various ways. The one or more PTP enzymes comprise Mycobacterium protein tyrosine phosphatase A (mPTPA), Mycobacterium protein tyrosine phosphatase B (mPTPB), PTPN1 (i.e., PTP1B), PTPN2 (i.e., TC-PTP), SHP-1, SHP-2, FAP-1, Meg2, HePTP, Laforin, VHX, VHR, LMWPTP, Cdcl4A, LAR, CD45, PTPRG, a fragment thereof, a variant thereof, and a combination thereof. Selectivity and potency of a small molecule PTPN2 inhibitor is evaluated using a PTP activity inhibition assay. The assay is performed using a buffer comprising 50 millimolar (mM) Bis-Tris (pH=6.3), 2 mM EDTA, and 5 mM N,N′-dimethyl-N,N′-bis(mercaptoacetyl)hydrazine (DMH). The assay is performed using a phosphated substrate, e.g., 10 mM fluorescein diphosphate (FDP) that is stored at −20° C. Alternatively or in addition to, the assay is performed using 10 mM DiFMUP as a phosphated substrate. Each PTP enzyme is diluted in an enzyme dilution buffer comprising 50 mM Bis-Tris (pH=6.3), 2 mM EDTA, 5 mM DMH, 20% (vol./vol.) glycerol, and 0.01% (vol./vol.) Triton X-100.
(§2) The assay is carried out at room temperature in 96 well plates. A reaction mixture of 170 microliter (μL) of the assay buffer comprising 10 μM FDP or DiFMIUP is added to each well. A 10 μL volume of (i) a compound disclosed herein (e.g., PTPN2 inhibitor) dissolved in DMSO at one of 10 concentrations from a serial dilution or (ii) DMSO alone for control is added to each well. The reaction is initiated by adding 20 μL of a PTP enzyme (e.g., PTPN2) that is diluted in the enzyme dilution buffer. The phosphatase activity of the PTP enzyme is assessed by monitoring appearance of a fluorescent product (e.g., fluorescein monophosphate (FMP) from FDP, or 6,8-difluoro-7-hydroxyl-4-coumarin (DiFMU) from DiFMUP) continuously for about 15 to 30 minutes, using the SpectraMax® Gemini™ XPS Microplate Spectrofluorometer (Molecular Devices®) with excitation of 440 nm and emission at 530 nm (cutoff filter at 525 nm) for FMP and excitation at 360 nm and emission at 450 nm (cutoff filter at 435 nm) for DiFMU. The rate (e.g., the initial rate) of FMP or DiFMU formation is plotted against the concentration of the small molecule PTPN2 inhibitor, and the data is fitted (e.g., using a 4-parameter equation) to determine the inflection point of the fit as the IC50 of the small molecule PTPN2 inhibitor for a specific enzyme. Table 6 summarizes the IC50 values of compounds disclosed herein against PTPN2 and PTPN1.

For another experiment, the target named is T2, PTP1B (Homo sapiens, UniProt P18031).
T2 sequence (P18031 1-435): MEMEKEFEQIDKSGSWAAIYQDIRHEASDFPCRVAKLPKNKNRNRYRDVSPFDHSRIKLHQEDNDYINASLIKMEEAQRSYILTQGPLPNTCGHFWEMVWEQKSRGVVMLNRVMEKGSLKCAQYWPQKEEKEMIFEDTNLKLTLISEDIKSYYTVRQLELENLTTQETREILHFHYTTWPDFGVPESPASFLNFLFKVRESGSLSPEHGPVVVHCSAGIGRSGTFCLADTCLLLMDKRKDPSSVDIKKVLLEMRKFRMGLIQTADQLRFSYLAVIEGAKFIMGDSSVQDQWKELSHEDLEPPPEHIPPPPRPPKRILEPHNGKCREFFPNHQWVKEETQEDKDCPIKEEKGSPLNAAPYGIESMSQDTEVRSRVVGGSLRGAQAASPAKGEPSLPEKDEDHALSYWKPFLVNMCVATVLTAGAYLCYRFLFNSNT
Nature of the experiment: Phosphatase activity assay (Bio-Biochem-DiFMUP), PTP1B. Type of experiment: biochemical. Conditions: DiFMUP substrate, room temperature.
From the text: as §1, §2

Another experiment has as its system OT-1 cells. In words: T-cell activation: intracellular production of IFNγ and TNFα in exhausted OT-1 cells. Type of experiment: cell-based. Conditions: 10 uM compound, OT-1 cells restimulated with 1 μM OVA, read-out: % TNFa + /IFNg + production in compound-treated cells (uM compound) relative to negative control (DMSO). Here is the method: 1*10^6 OT-1 cells are seeded in a 24well in a volume of 1 mL of RPMI/10% FCS, and activated with 10 nM OVA protein for 48 h. Cells are then split 1:4 into 96well plates after two washes in warm media. To induce exhaustion, cells are then expanded for 3 days in the presence of vehicle control or a compound described herein (e.g., PTPN2 inhibitor) various concentrations, as well as 5 ng/ml IL-7 and 5 ng/ml IL-15, with the addition of fresh OVA on each day. After this point, cells are treated with Brefeldin A and restimulated with 1 μM of OVA for 4-6h, and cells are stained to assess production of IFNγ and TNFα intracellularly by flow cytometry. The results are shown as increase in percentage production of IFNγ and TNFα in cells treated with an exemplified compound at 10 uM, relative to a negative control (DMSO) of cells without being treated with the compound but merely DMSO (a solvent in which exemplified compounds are dissolved). See Table 10 below summarizes percentage increase in IFNγ and TNFα intracellular production in cells treated with an exemplified compound (at 10 uM) or without it, relative to a negative control (DMSO).

Experiment [1] relates to B16F10 mouse melanoma cells. Nature of the experiment: MHC expression associated with IFNγ signaling, flow cytometry. Type of experiment: cell-based. Conditions: B16-F10, 3 uM compound, 48 hours, normalized to DMSO/with IFNγ control, read-out: % MHC in cells treated with Compound at 3 uM relative to negative control (DMSO). As for the experimental part: B16F10 mouse melanoma cells (ATCC Cat #CRL-6475, Manassas, VA) are seeded at approximately a density of 500 cells per well in a 384-well clear bottom plate (Corning Cat #3765, Corning, 5 NY) in 25 μL total volume of DMEM+10% FBS (Sigma Cat #D6429 and Sigma Cat #F4135, St. Louis, MO). Cells are allowed to adhere overnight at 37° C.+5% CO2. On the following day, 12.5 μL of mouse IFNγ (RD systems Cat #485-MI/CF, Minneapolis, MN) is added to half of the plate (columns 13-24) at a concentration of 2 ng/mL for a final assay concentration of 0.5 ng/mL of IFNγ. Media only (12.5 μL of DMEM+10% FBS) is added to the remainder of the 10 plate (columns 1-12). Next, compounds resuspended in DMSO (Sigma Cat #D2650) at 100 mM are diluted in semi-log dilutions in DMSO ranging from 100 mM to 0.001 mM and DMSO only controls are included. The compound/DMSO dilutions are further diluted 1:250 in DMEM+10% FBS, and 12.5 μL of these dilutions are added in triplicates to cells of both treatment arms (with and without IFNγ). Compounds are only dosed in the inner 240 wells, avoiding the outer 2-well perimeter of the plate to minimize edge effects. Finally, the plate is loaded into an IncuCyte® S3 Live Cell Analysis System (Essen Bioscience-Sartorius, Ann Arbor, MI) maintained in a 37° C.+5% CO2 incubator, allowed to equilibrate for 2 hours, and treated for 48 hours. MHC levels are measured by flow cytometry using a FITC anti-mouse H-2kb antibody (clone AF6-88.5), and levels are normalized based on DMSO/with IFNγ control. Table 7 below summarizes the percentage in MHC expression in cells treated with or without compounds disclosed herein at a specified concentration.
For orientation: In flow cytometry, cells or beads pass a laser one at a time.

Molecules are shown by their SMILES.

As for `CC(C)CCNc1ccc2cc(O)c(N3CC(=O)NS3(=O)=O)cc2n1` [Compound 113, 5-(6-hydroxy-2-(isopentylamino)quinolin-7-yl)-1,2,5-thiadiazolidin-3-one 1,1-dioxide], the IC50 on PTPN2 and on PTP1B was at most 1000 nM throughout. In addition, the activity at 10 µM in the experiment with OT-1 cells amounted to 210%.

Take `CC(C)CCNc1cc2cc(N3CC(=O)NS3(=O)=O)c(O)cc2n(C)c1=O` [Compound 120]: the IC50 at PTPN2 and at PTP1B was at most 1000 nM in each case. In addition, the activity at 10 µM in the experiment with OT-1 cells stood at 194%.

Consider `CC(C)CCNC(=O)c1cc2c(F)c(N3CC(=O)NS3(=O)=O)c(O)cc2s1` [Compound 130, 5-(1,1-dioxido-4-oxo-1,2,5-thiadiazolidin-2-yl)-4-fluoro-6-hydroxy-N-isopentylbenzo[b]thiophene-2-carboxamide], for which the IC50 on PTPN2 and on PTP1B was at most 1000 nM in each case. Moreover, in experiment [1], the activation at 3 µM is over 10%.

On to `O=C1CN(c2c(O)cc3ccc(OCC4CCOC4)nc3c2F)S(=O)(=O)N1` (stereo not shown) [Compound 139], for which the IC50 on PTPN2 and at PTP1B was at most 1000 nM in each case. Also, in experiment [1], the activation at 3 µM was over 10%. The activity at 10 µM in the experiment with OT-1 cells was determined as 226%.

Take `O=C1CN(c2c(O)cc3ccc(OCC4CCCOC4)nc3c2F)S(=O)(=O)N1` (stereo not shown) [Compound 144]: the IC50 on PTPN2 and on PTP1B was at most 1000 nM each time. The activation at 3 µM in experiment [1] was over 10%. The activity at 10 µM in the experiment on OT-1 cells amounted to 251%.

With `COC(C)(C)CCOc1ccc2cc(O)c(N3CC(=O)NS3(=O)=O)c(F)c2n1` [Compound 149], the IC50 at PTPN2 and on PTP1B was at most 1000 nM throughout. Further, the activation at 3 µM in experiment [1] is over 10%. Moreover, the activity at 10 µM with OT-1 cells was 207%.

On to `CC(C)(C)CCOc1ccc2cc(O)c(N3CC(=O)NS3(=O)=O)c(F)c2n1` [Compound 150], for which the IC50 at PTPN2 and on PTP1B was at most 1000 nM each time. Moreover, the activity at 10 µM in the experiment with OT-1 cells turned out to be 260%.

Turning to `O=C1CN(c2c(O)cc3ccc(OCCc4ccccc4)nc3c2F)S(=O)(=O)N1` [Compound 151], the IC50 at PTPN2 and on PTP1B was at most 1000 nM in each case. Besides, the activation at 3 µM in experiment [1] was 1 to 10%. Moreover, the activity at 10 µM with OT-1 cells turned out to be 227%.

As for `N#CCCCOc1ccc2cc(O)c(N3CC(=O)NS3(=O)=O)c(F)c2n1` [Compound 155], the IC50 at PTPN2 and on PTP1B was at most 1000 nM each time. Also, the activation at 3 µM in experiment [1] is over 10%.

`O=C1CN(c2c(O)cc3ccc(OCCC4CCCC4)nc3c2F)S(=O)(=O)N1` [Compound 158]: the IC50 on PTPN2 and at PTP1B was at most 1000 nM in each case. The activation at 3 µM in experiment [1] is over 10%. Also, in the experiment on OT-1 cells, the activity at 10 µM was 152%.

On to `CC(C)(C)CCOc1ccc2cc(O)c(N3CC(=O)NS3(=O)=O)cc2n1` [Compound 183], for which the IC50 on PTPN2 and at PTP1B was at most 1000 nM each time. The activation at 3 µM in experiment [1] was under 1%. Also, the activity at 10 µM with OT-1 cells was 162%.

For `CC(C)CCNc1cc2c(F)c(N3CC(=O)NS3(=O)=O)c(O)cc2n(C)c1=O` [Compound 186], the IC50 on PTPN2 and on PTP1B was at most 1000 nM throughout. Besides, in experiment [1], the activation at 3 µM is over 10%.

On to `CC(C)CCCc1cc2c(F)c(N3CC(=O)NS3(=O)=O)c(O)cc2n(C)c1=O` [Compound 190], for which the IC50 on PTPN2 and at PTP1B was at most 1000 nM in each case. Also, the activation at 3 µM in experiment [1] fell in the range of 1 to 10%.

With `Cn1c(=O)c(NCCC2CCC(F)(F)CC2)cc2cc(N3CC(=O)NS3(=O)=O)c(O)cc21` [Compound 201], the IC50 at PTPN2 and on PTP1B was at most 1000 nM each time.

With `Cn1c(=O)c(NCC2(C#N)CC2)cc2cc(N3CC(=O)NS3(=O)=O)c(O)cc21` [Compound 202], the IC50 (usually the concentration needed to halve the response being measured) on PTPN2 is 1000 to 10000 nM; at PTP1B, at most 1000 nM.

As for `CC(C)CCNc1cc2cc(N3C(C)C(=O)NS3(=O)=O)c(O)cc2n(C)c1=O` (stereo not shown) [Compound 203], the IC50 at PTPN2 and on PTP1B was 1000 to 10000 nM each time.

Take `O=C1CN(c2c(O)cc3ccc(OCCc4ccc(F)cc4)nc3c2F)S(=O)(=O)N1` [Compound 204, 5-(8-fluoro-2-(4-fluorophenethoxy)-6-hydroxyquinolin-7-yl)-1,2,5-thiadiazolidin-3-one 1,1-dioxide]: the IC50 on PTPN2 and on PTP1B was at most 1000 nM each time. For the same compound, the activation at 3 µM in experiment [1] lay in the range of 1 to 10%. In addition, in the experiment on OT-1 cells, the activity at 10 µM was 430%.
